The source of these data is patent US20250099421A1 (priority 2023, published 2025).

For data set [1] the following is noted: cited from earlier work.
The subject of data set [2] is rat monosodium iodoacetate model of knee osteoarthritis. Conditions: in vivo.

For hyaluronic acid [HA], the half-life in-vivo entry in data set [1] is on record as “hours-days”.
On to `COc1cc(CNC(=O)CCCC/C=C/C(C)C)ccc1O` [CAP, capsaicin], for which, in data set [2], the “weight bearing asymmetry at acute time points on Day 14 versus vehicle” value is on record as “increased weight bearing asymmetry”.
Turning to `C=C(C)[C@]12C[C@@H](C)[C@@]34O[C@](Cc5ccccc5)(O[C@@H]1[C@@H]3C=C(COC(=O)Cc1ccc(O)c(OC)c1)C[C@]1(O)C(=O)C(C)=C[C@@H]41)O2` [RTX, resiniferatoxin], in data set [2], the “weight bearing asymmetry at acute time points on Day 14 versus vehicle” value is “increased weight bearing asymmetry”.
